US20240368163A1, “COMPOUNDS AND METHODS FOR MODULATING SPLICING” (REMIX THERAPEUTICS INC., priority 2021, published 2024)

Key:
Assay type in all cases: cell-based, human
Target C [1] = test: Splicing RT-qPCR panel, Target C canonical junction (CJ) mRNA; conditions: Homo sapiens, RT-qPCR panel, canonical junction mRNA; compound concentration having 50% response in CJ decrease; read-out: Target C IC50 (decrease in CJ mRNA levels)
How it was run: (§1)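 A673 or K562 cells treated 24 h at 37 °C with 11-point 3-fold dilutions, top 10 uM, DMSO ≤0.25%. Lysates read by RT-qPCR for CJ and AJ isoforms, normalized to GAPDH, GUSB or PPIA; ΔΔCt vs DMSO converted to RQ, then percent response.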

SMN2 = test: Splicing RT-qPCR panel, SMN2 canonical junction (CJ) mRNA; conditions: Homo sapiens, RT-qPCR panel, canonical junction mRNA; compound concentration having 50% response in CJ decrease; read-out: SMN2 IC50 (decrease in CJ mRNA levels)
How it was run: as §1

HTT [2] = test: HiBiT protein abundance assay, HTT; conditions: Homo sapiens, K562, 24 h, Table 13A, modified K562 cells
How it was run: (§2)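 K562 cells with endogenous HiBiT-tagged target were treated 24 h at 37 °C with compound (10-point 3-fold dilution, top 10 μM final, DMSO ≤0.25%). Lytic LgBiT luminescence was normalized to unmodified K562 (baseline) and DMSO-treated tagged cells; IC50 interpolated at 50% from four-parameter logistic fit.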

Target C [3] = test: HiBiT protein abundance assay, Target C; conditions: Homo sapiens, K562, 24 h, Table 13A, modified K562 cells
How it was run: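 HiBiT knock-in K562-derived cells, 10000 cells/well, were treated 24 h at 37 °C with a 10-point 3-fold dilution series (top 10 μM final, DMSO ≤0.25%). Lytic HiBiT luminescence was normalized to unmodified K562 and DMSO controls; IC50 was interpolated at 50% from a four-parameter logistic fit.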

MYB [4] = test: Splicing RT-qPCR assay, MYB mRNA canonical junction (CJ) and alternative junction (AJ); conditions: Homo sapiens; for AC50: increase in AJ mRNA
How it was run: as §1

MYB [5] = test: HiBiT protein abundance assay, MYB; conditions: Homo sapiens, K562, 24 h, Table 13A, modified K562 cells
How it was run: as §2

HTT [6] = test: Splicing RT-qPCR assay, HTT mRNA canonical junction (CJ) and alternative junction (AJ); conditions: Homo sapiens; for AC50: increase in AJ mRNA
How it was run: as §1

[7] = 24 h, decrease in CJ mRNA, A673 or K562 cells, 24 hours treatment, RT-qPCR, read-out: MYB CJ IC50
[8] = 24 h, A673 or K562 cells, 24 hours treatment, RT-qPCR
[9] = RT-qPCR panel, canonical junction mRNA, compound concentration having 50% response in CJ decrease, read-out: MYB IC50 (decrease in CJ mRNA levels)
[10] = 24 h, decrease in CJ mRNA, A673 or K562 cells, 24 hours treatment, RT-qPCR, read-out: HTT CJ IC50
[11] = RT-qPCR panel, canonical junction mRNA, compound concentration having 50% response in CJ decrease, read-out: HTT IC50 (decrease in CJ mRNA levels)

| Compound | IC50 (Target C [1]) | IC50 (SMN2) | IC50 (HTT [2]) | IC50 (Target C [3]) | IC50 (MYB [4]; [7]) | AC50 (MYB [4]; [8]) | IC50 (MYB [4]; [9]) | IC50 (MYB [5]) | IC50 (HTT [6]; [10]) | AC50 (HTT [6]; [8]) | IC50 (HTT [6]; [11]) |
| --- | --- | --- | --- | --- | --- | --- | --- | --- | --- | --- | --- |
| CN1C[C@@H]2CN(c3ccc(-c4ccc(-c5cn[nH]c5)c5ncsc45)nn3)C[C@@H]2C1 [Compound 198] | > 10000 nM | 100 to 1000 nM | > 10000 nM | > 10000 nM | > 10000 nM | > 10000 nM | > 10000 nM | 1000 to 10000 nM | > 10000 nM | > 10000 nM | > 10000 nM |
| c1nc2c(-c3cn[nH]c3)ccc(-c3ccc(S[C@@H]4C[C@H]5CC[C@@H](C4)N5)nn3)c2s1 [Compound 200] | > 10000 nM | > 10000 nM | 1000 to 10000 nM | 1000 to 10000 nM | > 10000 nM | > 10000 nM | > 10000 nM | 1000 to 10000 nM | > 10000 nM | > 10000 nM | > 10000 nM |
| Cc1ncc(-c2ccc(-c3ccc(N(C)C4CC(C)(C)NC(C)(C)C4)nc3)c3ncsc23)o1 [Compound 201] | 1000 to 10000 nM | 100 to 1000 nM | 1000 to 10000 nM | > 10000 nM | 1000 to 10000 nM | 1000 to 10000 nM | 1000 to 10000 nM | 1000 to 10000 nM | 1000 to 10000 nM | 1000 to 10000 nM | 1000 to 10000 nM |
| CN(c1ccc(-c2ccc(-c3cn[nH]c3)c3ncsc23)nn1)[C@H]1[C@@H]2CNC[C@@H]21 [Compound 205] | > 10000 nM | 1000 to 10000 nM | > 10000 nM | 1000 to 10000 nM | > 10000 nM | > 10000 nM | > 10000 nM | 1000 to 10000 nM | > 10000 nM | > 10000 nM | > 10000 nM |
| c1nc2c(-c3cn[nH]c3)ccc(-c3ccc(C4CCNCC4)nn3)c2s1 [Compound 206] | > 10000 nM | < 100 nM | 1000 to 10000 nM | > 10000 nM | 1000 to 10000 nM | 100 to 1000 nM | 1000 to 10000 nM | 1000 to 10000 nM | 1000 to 10000 nM | > 10000 nM | 1000 to 10000 nM |
| CN(c1ccc(-c2ccc(-c3cnn(C)c(=O)c3)c3scnc23)nn1)C1CC(C)(C)NC(C)(C)C1 [Compound 211] | 100 to 1000 nM | 100 to 1000 nM | 100 to 1000 nM | 100 to 1000 nM | 100 to 1000 nM | 100 to 1000 nM | 100 to 1000 nM | 100 to 1000 nM | 100 to 1000 nM | 100 to 1000 nM | 100 to 1000 nM |
| c1nc2c(-c3cn[nH]c3)ccc(-c3ccc(NC4CCNCC4)nn3)c2s1 [Compound 214] | > 10000 nM | 100 to 1000 nM | 1000 to 10000 nM | > 10000 nM | 1000 to 10000 nM | > 10000 nM | 1000 to 10000 nM | 1000 to 10000 nM | > 10000 nM | 1000 to 10000 nM | > 10000 nM |
| c1n[nH]cc1-c1ccc(-c2ccc(N3CC4(CCCNC4)C3)nn2)c2[nH]ncc12 [Compound 218] | > 10000 nM | > 10000 nM | > 10000 nM | > 10000 nM | > 10000 nM | > 10000 nM | > 10000 nM | > 10000 nM | > 10000 nM | > 10000 nM | > 10000 nM |
| c1nc2c(-c3cn[nH]c3)ccc(-c3ccc(O[C@@H]4C[C@H]5CCC[C@@H](C4)N5)nn3)c2[nH]1 [Compound 219] | 100 to 1000 nM | < 100 nM | < 100 nM | 100 to 1000 nM | 100 to 1000 nM | 100 to 1000 nM | 100 to 1000 nM | 100 to 1000 nM | 100 to 1000 nM | 100 to 1000 nM | 100 to 1000 nM |
| CC1(C)CC(Oc2ccc(-c3ccc(-c4cn[nH]c4)c4cn[nH]c34)nn2)CCN1 (stereo not drawn) [Compound 220] | > 10000 nM | 100 to 1000 nM | 1000 to 10000 nM | > 10000 nM | 1000 to 10000 nM | > 10000 nM | 1000 to 10000 nM | 1000 to 10000 nM | 1000 to 10000 nM | > 10000 nM | 1000 to 10000 nM |
| c1n[nH]cc1-c1ccc(-c2ccc(S[C@@H]3C[C@H]4CC[C@@H](C3)N4)nn2)c2[nH]ncc12 [Compound 221] | > 10000 nM | > 10000 nM | 1000 to 10000 nM | 1000 to 10000 nM | > 10000 nM | > 10000 nM | > 10000 nM | 1000 to 10000 nM | > 10000 nM | > 10000 nM | > 10000 nM |
| CN(c1ccc(-c2ccc(-c3cn[nH]c3)c3ncsc23)nn1)C1CCNCC1 [Compound 222] | 1000 to 10000 nM | 100 to 1000 nM | 100 to 1000 nM | 1000 to 10000 nM | 1000 to 10000 nM | 1000 to 10000 nM | 1000 to 10000 nM | 1000 to 10000 nM | 1000 to 10000 nM | 1000 to 10000 nM | 1000 to 10000 nM |
| [2H]C([2H])([2H])N(c1ccc(-c2ccc(-c3cn[nH]c3)c3ncsc23)nn1)C1CCNCC1 [Compound 223] | 1000 to 10000 nM | 100 to 1000 nM | 1000 to 10000 nM | 1000 to 10000 nM | 1000 to 10000 nM | > 10000 nM | 1000 to 10000 nM | 1000 to 10000 nM | 1000 to 10000 nM | 1000 to 10000 nM | 1000 to 10000 nM |
| CCN(c1ccc(-c2ccc(-c3cn[nH]c3)c3ncsc23)nn1)C1CCNCC1 [Compound 224] | > 10000 nM | 1000 to 10000 nM | 1000 to 10000 nM | 1000 to 10000 nM | 1000 to 10000 nM | > 10000 nM | 1000 to 10000 nM | 100 to 1000 nM | > 10000 nM | > 10000 nM | > 10000 nM |
| CCN(c1ccc(-c2ccc(-c3cn[nH]c3)c3ncsc23)nn1)C1CC(C)(C)NC(C)(C)C1 [Compound 225] | 1000 to 10000 nM | 100 to 1000 nM | 100 to 1000 nM | 1000 to 10000 nM | 100 to 1000 nM | > 10000 nM | 100 to 1000 nM | 100 to 1000 nM | 1000 to 10000 nM | 1000 to 10000 nM | 1000 to 10000 nM |
